In the supplement of paper PMC10307832:

Assays:
Assay in all cases: relative viability (nuclei count vs DMSO), 5 days (fraction); higher = more cells survive
VE-821 + Linsitinib = compound: CS(=O)(=O)c1ccc(-c2cnc(N)c(C(=O)Nc3ccccc3)n2)cc1 [VE-821] + C[C@]1(O)C[C@@H](c2nc(-c3ccc4ccc(-c5ccccc5)nc4c3)c3c(N)nccn32)C1 [Linsitinib] (partner 1 µM)
How it was run: (§1)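 Lung cancer cell lines were pin-tool dosed in 1536-well plates on the day after seeding, with either a lone drug or a fixed anchor-drug dose plus five library-drug doses (not always all listed) in √10 steps. Nuclei were counted on 4× images after 5 days. Relative viability is the ratio of treated-well to vehicle-well nuclei counts, with each value a median of duplicate plates.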

Vismodegib + Foretinib = compound: CS(=O)(=O)c1ccc(C(=O)Nc2ccc(Cl)c(-c3ccccn3)c2)c(Cl)c1 [Vismodegib] + COc1cc2c(Oc3ccc(NC(=O)C4(C(=O)Nc5ccc(F)cc5)CC4)cc3F)ccnc2cc1OCCCN1CCOCC1 [Foretinib] (partner 0.25 µM)
How it was run: as §1

Vismodegib + Decitabine = compound: CS(=O)(=O)c1ccc(C(=O)Nc2ccc(Cl)c(-c3ccccn3)c2)c(Cl)c1 [Vismodegib] + Nc1ncn([C@H]2C[C@H](O)[C@@H](CO)O2)c(=O)n1 [Decitabine] (partner 2 µM)
How it was run: as §1

Ruxolitinib + Alpelisib = compound: N#CC[C@H](C1CCCC1)n1cc(-c2ncnc3[nH]ccc23)cn1 [Ruxolitinib] + Cc1nc(NC(=O)N2CCC[C@H]2C(N)=O)sc1-c1ccnc(C(C)(C)C(F)(F)F)c1 [Alpelisib] (partner 2 µM)
How it was run: as §1

Cell Line | relative viability (VE-821 + Linsitinib; first compound 0.08 µM) | relative viability (VE-821 + Linsitinib; first compound 0.253 µM) | relative viability (VE-821 + Linsitinib; first compound 0.8 µM) | relative viability (VE-821 + Linsitinib; first compound 2.53 µM) | relative viability (VE-821 + Linsitinib; first compound 8 µM) | relative viability (Vismodegib + Foretinib; first compound 0.08 µM) | relative viability (Vismodegib + Foretinib; first compound 0.253 µM) | relative viability (Vismodegib + Foretinib; first compound 0.8 µM) | relative viability (Vismodegib + Foretinib; first compound 2.53 µM) | relative viability (Vismodegib + Foretinib; first compound 8 µM) | relative viability (Vismodegib + Decitabine; first compound 0.08 µM) | relative viability (Vismodegib + Decitabine; first compound 0.253 µM) | relative viability (Vismodegib + Decitabine; first compound 0.8 µM) | relative viability (Vismodegib + Decitabine; first compound 2.53 µM) | relative viability (Vismodegib + Decitabine; first compound 8 µM) | relative viability (Ruxolitinib + Alpelisib; first compound 0.08 µM) | relative viability (Ruxolitinib + Alpelisib; first compound 0.253 µM) | relative viability (Ruxolitinib + Alpelisib; first compound 0.8 µM) | relative viability (Ruxolitinib + Alpelisib; first compound 2.53 µM) | relative viability (Ruxolitinib + Alpelisib; first compound 8 µM)
LCLC-97TM1 | 0.186 | 0.2 | 0.19 | 0.183 | 0.191 | 0.953 | 0.934 | 0.869 | 0.97 | 0.912 | 0.214 | 0.25 | 0.351 | 0.229 | 0.223 | 0.215 | 0.204 | 0.275 | 0.235 | 0.327
HCC-827 | 0.932 | 1.01 | 0.909 | 0.934 | 0.976 | 0.995 | 1.03 | 0.972 | 1.01 | 0.866 | 0.326 | 0.333 | 0.34 | 0.302 | 0.353 |  | 0.679 | 0.72 | 0.794 | 0.887
NCI-H596 | 1.1 | 1.18 | 1.03 | 1.15 | 0.94 | 0.826 | 0.83 | 0.463 | 0.964 | 1 | 0.889 | 0.967 | 0.979 | 0.997 | 1.07 | 0.521 | 0.567 | 0.559 | 0.531 | 0.547
NCI-H1734 | 0.97 | 0.917 | 0.737 | 0.969 | 0.617 | 0.875 | 0.869 | 0.876 | 0.772 | 0.946 | 0.466 | 0.437 | 0.47 | 0.505 | 0.499 | 0.68 | 0.579 | 0.798 | 0.623 | 0.667
NCI-H1651 | 1.01 | 0.999 | 0.847 | 0.986 | 0.737 | 0.818 | 0.604 | 0.782 | 0.739 | 0.781 | 0.581 | 0.617 | 0.682 | 0.528 | 0.579 | 0.941 | 0.875 | 1.08 | 1.09 | 0.968
A549 | 0.623 | 0.597 | 0.43 | 0.599 | 0.406 | 1.03 | 0.928 | 1.05 | 0.969 | 0.943 | 0.268 | 0.228 |  | 0.263 | 0.205 | 0.775 | 0.708 | 0.841 | 0.574 | 0.495
NCI-H1975 | 0.932 | 0.92 | 0.876 | 0.862 | 0.658 | 0.993 | 0.996 | 0.933 | 0.832 | 0.964 | 0.386 | 0.444 | 0.396 | 0.414 | 0.404 | 0.663 | 0.559 | 0.587 | 0.482 | 0.338
NCI-H1437 | 1.2 | 1.08 | 0.927 | 0.997 | 0.558 | 1.23 | 1.22 | 1.25 | 1.21 | 1.26 | 0.587 | 0.533 | 0.606 | 0.554 | 0.501 | 0.871 | 0.807 | 1.01 | 1.03 | 0.795
HOP-62 | 0.838 | 0.911 | 0.933 | 1.23 | 0.873 | 1.1 | 1.03 | 1.1 | 1.07 | 1.1 | 0.227 | 0.22 | 0.208 | 0.22 | 0.183 |  | 0.813 | 1.05 | 0.96 | 0.723
NCI-H2405 | 0.881 | 0.943 | 0.724 | 1.09 | 0.693 | 1.05 | 1.04 | 0.995 | 1.01 | 1.08 | 0.739 | 0.801 | 0.693 | 0.712 | 0.741 |  | 0.715 | 0.984 | 0.416 | 0.465
SK-MES-1 | 1.04 | 1.05 | 1.02 | 1.02 | 0.983 | 0.865 | 0.91 | 0.961 | 0.889 | 0.918 | 0.401 | 0.341 | 0.435 | 0.374 | 0.443 | 0.984 | 0.878 | 0.986 | 0.722 | 0.795
LC-2-ad | 0.88 | 0.764 | 0.821 | 0.925 | 0.661 | 0.924 | 0.848 | 0.893 | 0.847 | 1.02 | 0.746 | 0.717 | 0.834 | 0.693 | 0.777 | 0.895 | 0.848 | 0.934 | 0.734 | 0.567
NCI-H1944 | 1.26 | 1.16 | 0.832 | 1.3 | 0.663 | 0.851 | 0.794 | 0.897 | 0.878 | 0.942 | 0.428 | 0.413 | 0.456 |  | 0.405 | 0.777 | 0.689 | 0.863 | 0.782 | 0.753
